# In patent US20230279002A1, “Polymorphs of Crystalline Forms of 3,10-dimethoxy-5,8,13,13a-tetrahydro-6H-isoquinolino[3,2-a]isoquinolin-9-yl 3-fluorobenzenesulfonate and Salts Thereof” (CVI Pharmaceuticals Limited, priority 2020, published 2023):
# What was measured:
# Type in all cases: physicochemical
# [1] = Equilibration with solvent at 25° C. and 50° C. (slurry), solid form by XRPD
# Procedure: Equilibration with solvent at 25° C. and 50° C.: About 50 mg of 2a was equilibrated with 1 ml solvents at 25° C. and 50° C. After stirring for 1 day and 7 days, the suspensions were centrifuged. The solid part was collected and analyzed by XRPD, then dried in the air for 10 min and analyzed by XRPD. After equilibrium with solvent at 25° C. and 50° C. for 1 and 7 days, the crystal form was not changed. […] The XRPD spectra of the solid equilibrated with each solvent listed in Table 12, at 25° C. and 50° C., are shown overlaid that of undisturbed 2a in FIG. 8 through FIG. 14.
# [2] = Precipitation by addition of anti-solvent, solid form by XRPD
# Procedure: The precipitates were collected and analyzed by XRPD.
# 2a was dissolved in ACN or MeOH, and water or heptane was added as anti-solvent. […] The XRPD pattern of compound 2a (bottom) and compound 2a dissolved in ACN then precipitated with heptane (top) is shown in FIG. 6. The XRPD pattern of compound 2a (bottom trace) and compound 2a dissolved in MeOH then precipitated with heptane (top trace) or water (center trace) is shown in FIG. 7.
# [3] = Crystallization from hot saturated solutions, solid form by XRPD; conditions: for Solid form: EtOH, XRPD
# Procedure: Crystallization from hot saturated solutions: About 100 mg 2a was dissolved with minimal amount of solvent at about 60° C. The solution was filtrated and separated into two portions. One portion was put in ice bath and agitated till the end of the experiment; the other portion was cooled down naturally. The precipitates were collected on a filter, dried and analyzed by XRPD.
# [4] = Solvent evaporation, solid form by XRPD
# Procedure: Solvent evaporation: About 20 mg 2a was dissolved in organic solvents. The solution was filtrated and dried in the air. The obtained solid part from the evaporation process was analyzed by XRPD.
# [5] = Apparent solubility in organic solvents (visual); conditions: for solubility: thermodynamic from solid
# Procedure: Solubility: 2a substance was equilibrated with organic solvents to visually test the apparent solubility. The experiment was terminated once or if the target of 20 mg/mL was achieved.
structure (smiles),measurement,setting,value
COc1ccc2c(c1)CCN1Cc3c(ccc(OC)c3OS(=O)(=O)c3cccc(F)c3)C[C@H]21 [Compound 2a],Crystal form after equilibration with solvent,"[1]; 25° C. and 50° C., 1 and 7 days",not changed
same,Slurry solid form,"[1]; 50% EtOH (aq), 25° C.-1 day","Crystal, no change"
same,Slurry solid form,"[1]; 50% EtOH (aq), 25° C.-7 day","Crystal, no change"
same,Slurry solid form,"[1]; 50% EtOH (aq), 50° C.-1 day",partially crystalline
same,Slurry solid form,"[1]; ACN, 25° C.-1 day","Crystal, no change"
same,Slurry solid form,"[1]; ACN, 25° C.-7 day","Crystal, no change"
same,Slurry solid form,"[1]; ACN, 50° C.-1 day","Crystal, no change"
same,Slurry solid form,"[1]; Acetone, 25° C.-1 day","Crystal, no change"
same,Slurry solid form,"[1]; Acetone, 25° C.-7 day","Crystal, no change"
same,Slurry solid form,"[1]; Acetone, 50° C.-1 day","Crystal, no change"
same,Slurry solid form,"[1]; EtOAc, 25° C.-1 day","Crystal, no change"
same,Slurry solid form,"[1]; EtOAc, 25° C.-7 day","Crystal, no change"
same,Slurry solid form,"[1]; EtOAc, 50° C.-1 day","Crystal, no change"
same,Slurry solid form,"[1]; EtOH, 25° C.-1 day","Crystal, no change"
same,Slurry solid form,"[1]; EtOH, 25° C.-7 day","Crystal, no change"
same,Slurry solid form,"[1]; EtOH, 50° C.-1 day","Crystal, no change"
same,Slurry solid form,"[1]; IPA, 25° C.-1 day","Crystal, no change"
same,Slurry solid form,"[1]; IPA, 25° C.-7 day","Crystal, no change"
same,Slurry solid form,"[1]; MeOH, 25° C.-1 day","Crystal, no change"
same,Slurry solid form,"[1]; MeOH, 25° C.-7 day","Crystal, no change"
same,Slurry solid form,"[1]; MeOH, 50° C.-1 day",Clear solution
same,Slurry solid form,"[1]; THF, 25° C.-1 day","Crystal, no change"
same,Slurry solid form,"[1]; THF, 25° C.-7 day","Crystal, no change"
same,Slurry solid form,"[1]; THF, 50° C.-1 day","Crystal, no change"
same,Slurry solid form,"[1]; Water, 25° C.-1 day","Crystal, no change"
same,Slurry solid form,"[1]; Water, 25° C.-7 day","Crystal, no change"
same,Slurry solid form,"[1]; Water, 50° C.-1 day",partially crystalline
same,Crystal form after precipitation by anti-solvent,[2]; heptane as anti-solvent (ACN or MeOH solution),not changed
same,Solid form,"[2]; solvent ACN, anti-solvent Heptane (6 volumes)","Crystal, no change"
same,Solid form,"[2]; solvent ACN, anti-solvent Water (6 volumes)","No crystal, failed"
same,Solid form,"[2]; solvent MeOH, anti-solvent Heptane (3 volumes)","Crystal, no change"
same,Solid form,"[2]; solvent MeOH, anti-solvent Water (2 volumes)",Amorphous
same,Crystal form after precipitation by anti-solvent,[2]; water added to MeOH solution,transformed to amorphous
same,Solid form,[3]; quick (ice bath),partially crystalline
same,Solid form,[3]; slow (cooled down naturally),"no crystal, failed"
same,Solid form after crystallization from hot saturated solutions,"[3]; dissolved at about 60° C., cooled",partially crystalline
same,Solid form after evaporation,[4]; ACN,Amorphous
same,Solid form after evaporation,[4]; Acetone,Amorphous
same,Solid form after evaporation,[4]; EtOH,Amorphous
same,Solid form after evaporation,[4]; MeOH,Amorphous
same,solubility,"[5]; 50% EtOH (aq), aqueous with cosolvent or surfactant or cyclodextrin",< 990 µg/mL
same,Solubility (mg/ml),[5]; ACN,6.17~18.5 mg/ml
same,solubility,"[5]; EtOH, organic solvent or mixture",2100 to 3150 µg/mL
same,solubility,"[5]; THF, organic solvent or mixture",< 1140 µg/mL
same,solubility,"[5]; acetone, organic solvent or mixture",2220 to 3330 µg/mL
same,solubility,"[5]; acetonitrile, organic solvent or mixture, ACN",6170 to 18500 µg/mL
same,solubility,"[5]; ethyl acetate, organic solvent or mixture",< 1800 µg/mL
same,solubility,"[5]; heptane, organic solvent or mixture",< 1430 µg/mL
same,solubility,"[5]; methanol, organic solvent or mixture, MeOH",> 17000 µg/mL
same,solubility,[5]; water,< 1080 µg/mL
